Results from EP2121694B1, “CYCLOPROPYL FUSED INDOLOBENZAZEPINE HCV NS5B INHIBITORS” (Bristol-Myers Squibb Company, priority 2007, dated 2008).

molecular target: T1, HCV NS5B (Hepatitis C virus genotype 1b, UniProt Q9WMX2); test: Modified HCV NS5B RdRp enzyme assay (preincubation protocol); assay type: biochemical; settings: HCV NS5B RdRp genotype 1b
T1 construct: The protein was expressed with an 18 amino acid C-terminal truncation to enhance the solubility; made in house; host or cells: E. coli BL21(DE3), pET21a vector
Experimental: HCV NS5B RdRp cloning, expression, and purification. The cDNA encoding the NS5B protein of HCV, genotype 1b, was cloned into the pET21a expression vector. The protein was expressed with an 18 amino acid C-terminal truncation to enhance the solubility. The E. coli competent cell line BL21(DE3) was used for expression of the protein. Cultures were grown at 37 °C for ∼ 4 hours until the cultures reached an optical density of 2.0 at 600 nm. The cultures were cooled to 20 °C and induced with 1 mM IPTG. Fresh ampicillin was added to a final concentration of 50 µg/ml and the cells were grown overnight at 20 °C.
Cell pellets (3L) were lysed for purification to yield 15-24 mgs of purified NS5B. The lysis buffer consisted of 20 mM Tris-HCl, pH 7.4, 500 mM NaCl, 0.5% triton X-100, 1 mM DTT, 1mM EDTA, 20% glycerol, 0.5 mg/ml lysozyme, 10 mM MgCl2, 15 ug/ml deoxyribonuclease I, and Complete TM protease inhibitor tablets (Roche). After addition of the lysis buffer, frozen cell pellets were resuspended using a tissue homogenizer. To reduce the viscosity of the sample, aliquots of the lysate were sonicated on ice using a microtip attached to a Branson sonicator. The sonicated lysate was centrifuged at 100,000 x g for 1hr at 4 °C and filtered through a 0.2 µm filter unit (Corning).
The protein was purified using three sequential chromatography steps: Heparin sepharose CL-6B, polyU sepharose 4B, and Hitrap SP sepharose (Pharmacia). The chromatography buffers were identical to the lysis buffer but contained no lysozyme, deoxyribonuclease I, MgCl2 or protease inhibitor and the NaCl concentration of the buffer was adjusted according to the requirements for charging the protein onto the column. Each column was eluted with a NaCl gradient which varied in length from 5-50 column volumes depending on the column type. After the final chromatography step, the resulting purity of the enzyme is >90% based on SDS-PAGE analysis. The enzyme was aliquoted and stored at -80 °C.
Standard HCV NS5B RdRp enzyme assay. HCV RdRp genotype 1b assays were run in a final volume of 60 µl in 96 well plates (Costar 3912). The assay buffer is composed of 20 mM Hepes, pH 7.5, 2.5 mM KCl, 2.5 mM MgCl2, 1 mM DTT, 1.6 U RNAse inhibitor (Promega N2515), 0.1 mg/ml BSA (Promega R3961), and 2 % glycerol. All compounds were serially diluted (3-fold) in DMSO and diluted further in water such that the final concentration of DMSO in the assay was 2%. HCV RdRp genotype 1b enzyme was used at a final concentration of 28 nM. A polyA template was used at 6 nM, and a biotinylated oligo-dT12 primer was used at 180 nM final concentration. Template was obtained commercially (Amersham 27-4110). Biotinylated primer was prepared by Sigma Genosys. 3H-UTP was used at 0.6 µCi (0.29 µM total UTP). Reactions were initiated by the addition of enzyme, incubated at 30 °C for 60 min, and stopped by adding 25 µl of 50 mM EDTA containing SPA beads (4 µg/µl, Amersham RPNQ 0007). Plates were read on a Packard Top Count NXT after >1hr incubation at room temperature.
Modified HCV NS5B RdRp enzyme assay. A modified enzyme assay was performed essentially as described for the standard enzyme assay except for the following: The biotinylated oligo dT12 primer was precaptured on streptavidin-coated SPA beads by mixing primer and beads in assay buffer and incubating at room temperature for one hour. Unbound primer was removed after centrifugation. The primer-bound beads were resuspended in 20 mM Hepes buffer, pH 7.5 and used in the assay at final concentrations of 20 nM primer and 0.67 µg/µl beads. Order of addition in the assay: enzyme (14 nM) was added to diluted compound followed by the addition of a mixture of template (0.2 nM) , 3H-UTP (0.6 µCi, 0.29 µM), and primer-bound beads, to initiate the reaction; concentrations given are final. Reactions were allowed to proceed for 4 hours at 30° C.
IC50 values for compounds were determined using seven different [I]. […]

T1 sequence (Q9WMX2 2420-2992): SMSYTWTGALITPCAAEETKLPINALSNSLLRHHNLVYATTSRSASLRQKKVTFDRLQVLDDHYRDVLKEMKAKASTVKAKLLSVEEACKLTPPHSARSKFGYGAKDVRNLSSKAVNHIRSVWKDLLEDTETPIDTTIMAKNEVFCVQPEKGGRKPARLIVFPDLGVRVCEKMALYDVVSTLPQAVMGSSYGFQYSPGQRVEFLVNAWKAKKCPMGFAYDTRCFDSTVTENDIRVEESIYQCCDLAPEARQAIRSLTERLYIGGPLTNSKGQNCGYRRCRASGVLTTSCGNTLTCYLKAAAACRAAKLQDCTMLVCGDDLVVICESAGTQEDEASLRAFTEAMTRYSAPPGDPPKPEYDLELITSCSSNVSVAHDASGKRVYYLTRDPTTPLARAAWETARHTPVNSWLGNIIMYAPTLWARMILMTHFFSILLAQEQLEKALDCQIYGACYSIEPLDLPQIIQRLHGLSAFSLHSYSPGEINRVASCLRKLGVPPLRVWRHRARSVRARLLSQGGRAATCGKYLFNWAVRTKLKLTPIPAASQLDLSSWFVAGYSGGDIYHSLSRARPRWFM

Row | SMILES | IC50 [nM]
1 | COc1cccc2c1C1CC1(C(=O)N1C[C@@H](C)O[C@@H](C)C1)Cn1c-2c(C2CCCCC2)c2ccc(C(=O)NS(=O)(=O)N(C)C)cc21 (stereo partly shown) | 97 to 1000
2 | CCN(CC)CCN(CCN(CC)CC)C(=O)C12CC1c1cc(OC)ccc1-c1c(C3CCCCC3)c3ccc(C(=O)NS(=O)(=O)N(C)C)cc3n1C2 (stereo not shown) | 97 to 1000
3 | C[C@@H]1CN(C(=O)C23CC2c2c(OC(F)(F)F)cccc2-c2c(C4CCCCC4)c4ccc(C(=O)O)cc4n2C3)C[C@H](C)O1 (stereo partly shown) | 97 to 1000
4 | COc1ccc2c(c1)C1CC1(C(=O)N(C)CCN(C)C)Cn1c-2c(C2CCCCC2)c2ccc(C(=O)NS(=O)(=O)N(C)C)cc21 (stereo not shown) | 97 to 1000
5 | COc1ccc2c(c1)C1CC1(C(=O)N1CCCN(C)CC1)Cn1c-2c(C2CCCCC2)c2ccc(C(=O)NS(=O)(=O)N(C)C)cc21 (stereo not shown) [drawing 65] | 97 to 1000
6 | COC(=O)C12CC1c1cc(O)ccc1-c1c(C3CCCCC3)c3ccc(C(=O)OC(C)(C)C)cc3n1C2 (stereo not shown) | 1000 to 10000
7 | COCC1CN(C(=O)C23CC2c2cc(OC)ccc2-c2c(C4CCCCC4)c4ccc(C(=O)NS(=O)(=O)N(C)C)cc4n2C3)CCO1 (stereo not shown) | 97 to 1000
8 | CCC(CC)N1CCN(C(=O)C23CC2c2cc(OC)ccc2-c2c(C4CCCCC4)c4ccc(C(=O)NS(=O)(=O)N(C)C)cc4n2C3)CC1 (stereo not shown) [drawing 39] | 97 to 1000
9 | COc1ccc2c(c1)C1CC1(C(=O)O)Cn1c-2c(C2CCCCC2)c2ccc(C(=O)OC(C)(C)C)cc21 (stereo not shown) | 1000 to 10000
10 | COc1ccc2c(c1)C1CC1(C(=O)O)Cn1c-2c(C2CCCCC2)c2ccc(C(=O)NS(N)(=O)=O)cc21 (stereo not shown) | 97 to 1000
11 | COC(=O)C12CC1c1cc(OC)ccc1-c1c(C3CCCCC3)c3ccc(C(=O)NS(=O)(=O)C(C)C)cc3n1C2 (stereo not shown) | 97 to 1000
12 | COC(=O)c1ccc2c(C3CCCCC3)c3n(c2c1)CC1(C(=O)O)CC1c1c(OC(F)(F)F)cccc1-3 (stereo not shown) | 1000 to 10000
13 | CCC(CC)N1CCN(C(=O)C23CC2c2cc(OC)ccc2-c2c(C4CCCCC4)c4ccc(C(=O)NS(=O)(=O)N(C)C)cc4n2C3)CC1 (stereo not shown) [drawing 37] | 97 to 1000
14 | COc1ccc2c(c1)C1CC1(C(=O)N1CCC(C)(O)CC1)Cn1c-2c(C2CCCCC2)c2ccc(C(=O)NS(=O)(=O)C3CC3)cc21 (stereo not shown) | 97 to 1000
15 | COc1ccc2c(c1)C1CC1(C(=O)N1CCCCC1CN(C)C)Cn1c-2c(C2CCCCC2)c2ccc(C(=O)NS(=O)(=O)N(C)C)cc21 (stereo not shown) [drawing 50] | 97 to 1000
16 | COc1ccc2c(c1)C1CC1(C(=O)O)Cn1c-2c(C2CCCCC2)c2ccc(C(=O)NS(=O)(=O)C3CC3)cc21 (stereo not shown) | 97 to 1000

test system: HCV replicon; test: HCV FRET screening assay in HCV replicon cells; assay type: cell-based; settings: Hepatitis C virus
Text: FRET Assay Preparation. To perform the HCV FRET screening assay, 96-well cell culture plates were used. The FRET peptide (Anaspec, Inc.) (Taliani et al., Anal. Biochem. 1996, 240, 60-67) contains a fluorescence donor, EDANS, near one end of the peptide and an acceptor, DABCYL, near the other end. The fluorescence of the peptide is quenched by […] resonance energy transfer (RET) between the donor and the acceptor, but as the NS3 protease cleaves the peptide the products are released from RET quenching and the fluorescence of the donor becomes apparent. The assay reagent was made as follows: 5X cell Luciferase cell culture lysis reagent from Promega (#E153A) diluted to 1X with dH2O, NaCl added to 150 mM final, the FRET peptide diluted to 20 uM final from a 2 mM stock.
To prepare plates, HCV replicon cells, with or without a Renilla luciferase reporter gene, were trypsinized and placed into each well of a 96-well plate with titrated test compounds added in columns 3 through 12; columns 1 and 2 contained a control compound (HCV protease inhibitor), and the bottom row contained cells without compound. The plates were then placed in a CO2 incubator at 37 °C.
Assays. Subsequent to addition of the test compounds described above (FRET Assay Preparation), at various times the plate was removed and Alamar blue solution (Trek Diagnostics, #00-100) was added per well as a measure of cellular toxicity. After reading in a Cytoflour 4000 instrument (PE Biosystems), plates were rinsed with PBS and then used for FRET assay by the addition of 30 ul of the FRET peptide assay reagent described above (FRET Assay Preparation) per well. The plate was then placed into the Cytoflour 4000 instrument which had been set to 340 excite/490 emission, automatic mode for 20 cycles and the plate read in a kinetic mode. Typically, the signal to noise using an endpoint analysis after the reads was at least three-fold. Alternatively, after Alamar blue reading, plates were rinsed with PBS, 50 ul of DMEM (high glucose) without phenol red was added and plates were then used for luciferase assay using the Promega Dual-Glo Luciferase Assay System.
Compound analysis was determined by quantification of the relative HCV replicon inhibition and the relative cytotoxicity values. To calculate cytoxicity values, the average Alamar Blue fluorescence signals from the control wells were set as 100% non-toxic. The individual signals in each of the compound test wells were then divided by the average control signal and multiplied by 100% to determine […]. To calculate the HCV replicon inhibition values, an average background value was obtained from the two wells containing the highest amount of HCV protease inhibitor at the end of the assay period. These numbers were similar to those obtained from naïve Huh-7 cells.
The background numbers were then subtracted from the average signal obtained from the control wells and this number was used as 100% activity. The individual signals in each of the compound test wells were then divided by the averaged control values after background subtraction and multiplied by 100% to determine percent activity. EC50 values for a protease inhibitor titration were calculated as the concentration which caused a 50% reduction in FRET or luciferase activity. The two numbers generated for the compound plate, percent cytoxicity and percent activity were used to determine compounds of interest for further analysis.

Row | SMILES | EC50 [nM]
17 | COCC1CN(C(=O)C23CC2c2cc(OC)ccc2-c2c(C4CCCCC4)c4ccc(C(=O)NS(=O)(=O)N(C)C)cc4n2C3)CCO1 (stereo not shown) | 97 to 1000

same assay, conditions: Hepatitis C virus, HCV replicon cells, FRET assay; read-out: EC50

Row | SMILES | EC50 [nM]
18 | COc1cccc2c1C1CC1(C(=O)N1C[C@@H](C)O[C@@H](C)C1)Cn1c-2c(C2CCCCC2)c2ccc(C(=O)NS(=O)(=O)N(C)C)cc21 (stereo partly shown) | 97 to 1000
19 | CCN(CC)CCN(CCN(CC)CC)C(=O)C12CC1c1cc(OC)ccc1-c1c(C3CCCCC3)c3ccc(C(=O)NS(=O)(=O)N(C)C)cc3n1C2 (stereo not shown) | 97 to 1000
20 | C[C@@H]1CN(C(=O)C23CC2c2c(OC(F)(F)F)cccc2-c2c(C4CCCCC4)c4ccc(C(=O)O)cc4n2C3)C[C@H](C)O1 (stereo partly shown) | 97 to 1000
21 | COc1ccc2c(c1)C1CC1(C(=O)N(C)CCN(C)C)Cn1c-2c(C2CCCCC2)c2ccc(C(=O)NS(=O)(=O)N(C)C)cc21 (stereo not shown) | 97 to 1000
22 | COC(=O)C12CC1c1cc(O)ccc1-c1c(C3CCCCC3)c3ccc(C(=O)OC(C)(C)C)cc3n1C2 (stereo not shown) | > 1000
